In patent US20040038883A1, “Peptide inhibitors of Akt and uses thereof” (priority 2002, published 2004):
No end group written: not given here.

Columns and labels:
[1] = test system: Akt1-FL (full-length Akt1); assay: IC50 (Akt1-FL*)
Method: Table printed on a drawing sheet, FIG.3B
Head of the field: IC50 (Akt1-FL*)
Footnotes: *FL: FULL-LENGTH
The patent's description of the figure: FIG. 3: FIG. 3A illustrates Akt1 inhibition by the five Akt1 peptide inhibitors. FIG. 3B illustrates the IC50 of the five peptide inhibitors.
First copying reader's note: For peptide 5 the sheet prints a percent value at 128μM in place of an IC50.
Where the first naming reader finds the target: head: IC50 (Akt1-FL*)

SGK = assay: kinase selectivity assay, SGK; assay type: biochemical
Text: Enzymes: Akt1 was expressed and purified using a baculoviral system. PKA was purchased from Panvera. CDC2, […] and PKC gamma were purchased from Calbiochem, and SGK and Src were purchased from Upstate Biotechnology (Charlottesvilee, Va.).
Substrates: All substrates were custom synthesized by Genemed Synthesis, Inc. (San Francisco, Calif.) except the Src substrate, which was purchased from Promega (cat#V6480). The substrates had the general structure of Biotin-Ahx-peptide. The Akt assay used […]. The PKA assay used kemptide LRRASLG. The CDC2 assay used PKTPKKAKKL. The SGK assay used RPRAATF. The PKC delta and gamma used neurogranin ERMRPRKRQGSVRRRV. Phosphotidylserine and dioleyl-sn-glycerol were purchased from Avanti Polar Lipids (Alabaster, Ala.). Strepavidin Flash Plates were purchased from Perkin Elmer Life Sciences (Boston, Mass.).
Turning to the kinase selectivity assays, all the enzymes other than Akt were tested in 25 mM Hepes buffer pH 7.4, 10 mM MgCl2, 0.1 mM Na3VO4, 0.5 mM DTT and 0.075 mg/ml Triton X-100. […] Reactions were transferred to Flash Plates, vortexed and incubated at room temperature for 10 min, then washed 3 times with phosphate buffered saline with 0.05% Tween 20 and counted on a TopCount Packard Instruments gamma counter (Packard Instruments, Boston, Mass.). IC50s were calculated using the Assay Explorer software, sigmoidal curve fit by MDL.

Akt1 = molecular target: T1, Akt1 (Homo sapiens, UniProt P31749); assay: in vitro Akt1 kinase assay with biotinylated Bad-derived peptide substrate; assay type: biochemical; conditions: FIG. 3
T1 construct: made in house; host or cells: baculovirus / insect cells

mouse Akt1 = mouse Akt1 (Mus musculus, UniProt P31750); conditions: mouse Akt1, J. Biol. Chem. 275:36108-36115 (2000); cited from earlier work
Akt = assay: Ki
Method: Table printed on a drawing sheet, FIG.8
The patent's description of the figure: FIG. 8 represents the minimal length requirement for the peptide inhibitors. Different lengths of peptide inhibitor 2 were synthesized. For some of them, an acetyl group was added to the amino terminal end to increase the stability for cellular assays. These peptides were tested in the Akt assay described herein.
First copying reader's note: Ki values are for length variants of peptide inhibitor 2 tested in the Akt assay; the unit (μM) stands in the cells.
Where the first naming reader finds the target: description_of_the_figure: These peptides were tested in the Akt assay described herein.

T1 sequence (P31749 whole entry): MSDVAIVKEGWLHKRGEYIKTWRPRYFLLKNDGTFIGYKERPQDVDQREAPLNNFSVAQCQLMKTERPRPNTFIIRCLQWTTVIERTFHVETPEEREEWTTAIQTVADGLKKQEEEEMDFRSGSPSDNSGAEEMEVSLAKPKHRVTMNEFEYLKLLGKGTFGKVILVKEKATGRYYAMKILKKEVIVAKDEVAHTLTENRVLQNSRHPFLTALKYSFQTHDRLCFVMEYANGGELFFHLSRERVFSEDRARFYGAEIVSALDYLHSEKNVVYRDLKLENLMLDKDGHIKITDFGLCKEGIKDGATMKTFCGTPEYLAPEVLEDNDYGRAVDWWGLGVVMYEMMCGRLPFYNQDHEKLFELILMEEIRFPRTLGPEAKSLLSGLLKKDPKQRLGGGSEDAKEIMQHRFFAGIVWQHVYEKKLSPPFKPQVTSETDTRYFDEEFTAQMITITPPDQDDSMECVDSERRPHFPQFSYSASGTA
Chain of mouse Akt1 (P31750 whole entry): as the sequence (P31749 whole entry) above, with S2N, A50S, T100A, K112R, E117T, K389T, G410N, H415D counted along it

VELDPEFEPRARER T Y S F GH [1:]
IC50 [1]: 0.49 µM

CC(C)C[C@H](NC(=O)[C@H](CCC(=O)O)NC(=O)[C@@H](N)C(C)C)C(=O)N[C@@H](CC(=O)O)C(=O)N1CCC[C@H]1C(=O)N[C@@H](CCC(=O)O)C(=O)N[C@@H](Cc1ccccc1)C(=O)N[C@@H](CCC(=O)O)C(=O)N1CCC[C@H]1C(=O)N[C@@H](CCCNC(=N)N)C(=O)N[C@@H](C)C(=O)N[C@@H](CCCNC(=N)N)C(=O)N[C@@H](CCC(=O)O)C(=O)N[C@@H](CCCNC(=N)N)C(=O)N[C@H](C(=O)N[C@@H](Cc1ccc(O)cc1)C(=O)N[C@@H](CO)C(=O)N[C@@H](Cc1ccccc1)C(=O)NCC(=O)N[C@@H](Cc1c[nH]cn1)C(=O)O)[C@@H](C)O [Peptide 1]
inhibition on SGK (in words) (SGK): inhibition was observed
Ki (SGK; highest concentration tested 50 μM, 10 μM ATP): 1 µM
relative potency of Akt1 inhibition (in words) (Akt1): most potent inhibitor against Akt1

ARKRERTYSFGHHA [AKTide-2T]
Ki (mouse Akt1): 12 µM

FEPRARERTYAFGH
Ki (Akt): 1.97 µM

VELDPEFEPRARER T Y A F GH [2:]
IC50 [1]: 0.28 µM

Ac-DPEFEPRARERTYAFGH
Ki (Akt): 0.26 µM

Ac-FEPRARERTYAFGH
Ki (Akt): 1.44 µM

Ac-ERTYAFGH
Ki (Akt): > 100 µM

Ac-RARERTYAFGH
Ki (Akt): 15.9 µM

VELDPEFEPRARER A Y A F GH [4:]
IC50 [1]: 0.21 µM

VELDPEFEPRARER T Y D F GH [3:]
IC50 [1]: 10.6 µM

5: peptide 2 with threonine at position 15 mutated to Asp (VELDPEFEPRARERDYAFGH; Variant of the wildtype Akt Sequence) [Peptide 5]
relative potency of Akt1 inhibition (in words) (Akt1): least potent inhibitor
